Results taken from ChEMBL document CHEMBL1201862, “PubChem BioAssay data set” (2004).
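48-hour exposure; five concentrations; linearly interpolated endpoints. GI50: concentration for 50% inhibition of growth.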 Calls of active or inactive are those of the source. Rule as the data show it: active = GI50 up to about 1.1 µM and inactive = higher.

Experiments:
Assay in all cases: NCI tumour cell line growth inhibition, 48 h
HT-29 = system: HT-29
EKVX = system: EKVX
RXF 393 = system: RXF 393
NCI-H522 = system: NCI-H522
KM12 = system: KM12
CCRF-CEM = system: CCRF-CEM
SNB-75 = system: SNB-75
RPMI-8226 = system: RPMI-8226
COLO 205 = system: COLO 205
M19-MEL = system: M19-MEL
SF-539 = system: SF-539
HOP-62 = system: HOP-62
SNB-19 = system: SNB-19
UACC-257 = system: UACC-257
CAKI-1 = system: CAKI-1
HCC 2998 = system: HCC 2998

Measured: GI50

C=CCN(N=O)C(=O)NCCCC(NC(C)=O)C(=O)NCc1ccccc1 (configuration not stated)
inactive: HT-29 > 100 µM | EKVX > 100 µM | RXF 393 > 100 µM | NCI-H522 > 100 µM | KM12 > 100 µM | CCRF-CEM > 100 µM | SNB-75 > 100 µM | RPMI-8226 > 100 µM | COLO 205 > 100 µM | M19-MEL > 100 µM | SF-539 98.2 µM | HOP-62 > 100 µM | SNB-19 > 100 µM | UACC-257 > 100 µM | CAKI-1 > 100 µM

OCCN(CCO)c1cccc(N(CCO)CCO)n1
inactive: EKVX > 100 µM | RXF 393 > 100 µM | NCI-H522 > 100 µM | KM12 > 100 µM | CCRF-CEM > 100 µM | HCC 2998 > 10 µM | SNB-75 > 100 µM | RPMI-8226 > 100 µM | COLO 205 > 100 µM | M19-MEL > 100 µM | HOP-62 > 100 µM | SNB-19 > 100 µM | UACC-257 > 100 µM | CAKI-1 > 100 µM

CCOC(=O)c1cc2c(cn1)[nH]c1cccc(N)c12
inactive: HT-29 > 100 µM | RXF 393 > 100 µM | NCI-H522 > 100 µM | KM12 > 100 µM | CCRF-CEM > 100 µM | HCC 2998 > 100 µM | SNB-75 > 100 µM | COLO 205 > 100 µM | M19-MEL > 100 µM | SF-539 > 100 µM | HOP-62 > 100 µM | SNB-19 > 100 µM | UACC-257 > 100 µM | CAKI-1 > 100 µM

Cc1ccc(NC(=O)CCC(=O)C2CC(=O)CC/C2=N\NC(=O)c2cc3ccccc3cc2O)cc1C (configuration not stated)
inactive: HT-29 38.5 µM | EKVX 29 µM | NCI-H522 16.6 µM | KM12 31.8 µM | CCRF-CEM 11.5 µM | HCC 2998 18.7 µM | SNB-75 17.1 µM | RPMI-8226 25 µM | COLO 205 16.9 µM | M19-MEL 27.4 µM | SF-539 30.1 µM | HOP-62 43.4 µM | SNB-19 40.7 µM | UACC-257 20.7 µM | CAKI-1 19 µM

CCCCN(CCCC)CC(C(=O)Nc1ccccc1)/C(C)=N\NC(=O)c1ccncc1 (configuration not stated)
inactive: HT-29 > 100 µM | RXF 393 > 100 µM | NCI-H522 > 100 µM | KM12 > 100 µM | HCC 2998 > 100 µM | SNB-75 16.9 µM | RPMI-8226 > 100 µM | COLO 205 > 100 µM | M19-MEL 68.9 µM | SF-539 > 100 µM | HOP-62 > 100 µM | SNB-19 > 100 µM | UACC-257 > 100 µM | CAKI-1 > 100 µM

Nc1ccn(CCOC(c2ccccc2)P(=O)(O)O)c(=O)n1 (configuration not stated)
inactive: HT-29 > 100 µM | EKVX > 100 µM | RXF 393 > 100 µM | NCI-H522 > 100 µM | KM12 > 100 µM | CCRF-CEM > 100 µM | HCC 2998 > 100 µM | SNB-75 12.2 µM | COLO 205 > 100 µM | M19-MEL > 100 µM | SF-539 > 100 µM | SNB-19 > 100 µM | UACC-257 > 100 µM | CAKI-1 > 100 µM

NS(=O)(=O)c1cc2c(cc1Cl)NC(C(=O)c1cc(=O)c3ccc(O)cc3o1)=NS2(=O)=O
inactive: HT-29 > 100 µM | EKVX > 100 µM | RXF 393 > 100 µM | NCI-H522 > 100 µM | KM12 > 100 µM | CCRF-CEM > 100 µM | HCC 2998 > 100 µM | SNB-75 97.7 µM | RPMI-8226 > 100 µM | COLO 205 > 100 µM | M19-MEL > 100 µM | SF-539 > 100 µM | HOP-62 > 100 µM | SNB-19 > 100 µM | UACC-257 > 100 µM | CAKI-1 > 100 µM

COc1ccc(Cc2nccc3cc(OC)c(OC)cc23)cc1
inactive: HT-29 67.9 µM | EKVX > 100 µM | NCI-H522 37.8 µM | KM12 81.5 µM | CCRF-CEM 65.6 µM | HCC 2998 > 100 µM | SNB-75 33.1 µM | RPMI-8226 20.9 µM | COLO 205 > 100 µM | M19-MEL 98.4 µM | SF-539 > 100 µM | HOP-62 > 100 µM | SNB-19 54.6 µM | UACC-257 16.4 µM | CAKI-1 33 µM

C=CCNC(=O)N(CCC)CCCCC(NC(C)=O)C(=O)NCc1ccccc1 (configuration not stated)
inactive: HT-29 > 100 µM | EKVX > 100 µM | RXF 393 > 100 µM | NCI-H522 > 100 µM | KM12 > 100 µM | CCRF-CEM > 100 µM | HCC 2998 > 100 µM | SNB-75 > 100 µM | RPMI-8226 > 100 µM | COLO 205 > 100 µM | M19-MEL > 100 µM | SF-539 > 100 µM | HOP-62 > 100 µM | SNB-19 > 100 µM | UACC-257 > 100 µM | CAKI-1 > 100 µM

CC1(C)N=C(Oc2ccccc2)n2nccc2N1
inactive: HT-29 > 100 µM | EKVX > 100 µM | RXF 393 > 100 µM | NCI-H522 40.9 µM | KM12 > 100 µM | CCRF-CEM > 100 µM | HCC 2998 > 100 µM | SNB-75 > 100 µM | RPMI-8226 > 100 µM | COLO 205 87.1 µM | M19-MEL > 100 µM | SF-539 > 100 µM | HOP-62 > 100 µM | SNB-19 > 100 µM | UACC-257 > 100 µM | CAKI-1 > 100 µM

NC(=O)c1csc(C2OC(COP(=O)(O)CP(=O)(O)OCC3OC(n4cnc5c(N)ncnc54)C(O)C3O)C(O)C2O)n1 (configuration not stated)
inactive: HT-29 87.7 µM | EKVX > 100 µM | NCI-H522 68.1 µM | KM12 > 100 µM | CCRF-CEM > 100 µM | HCC 2998 > 100 µM | SNB-75 > 100 µM | RPMI-8226 > 100 µM | COLO 205 91.2 µM | M19-MEL > 100 µM | SF-539 > 100 µM | HOP-62 > 100 µM | SNB-19 > 100 µM | UACC-257 > 100 µM | CAKI-1 > 100 µM

CC(=O)N/C(=C\c1ccc(Cc2nc3c([nH]2)C(=O)c2ccccc2C3=O)cc1)c1nc2c([nH]1)C(=O)c1ccccc1C2=O
inactive: HT-29 > 100 µM | EKVX > 100 µM | RXF 393 > 100 µM | NCI-H522 > 100 µM | KM12 > 100 µM | CCRF-CEM > 100 µM | HCC 2998 > 100 µM | SNB-75 86.3 µM | RPMI-8226 > 100 µM | COLO 205 > 100 µM | M19-MEL > 100 µM | SF-539 > 100 µM | HOP-62 > 100 µM | SNB-19 > 100 µM | UACC-257 > 100 µM | CAKI-1 > 100 µM

COC1CC(OC)C2OC(c3ccccc3)OCC2O1 (configuration not stated)
inactive: HT-29 > 100 µM | EKVX > 100 µM | RXF 393 > 100 µM | NCI-H522 > 100 µM | KM12 > 100 µM | CCRF-CEM > 100 µM | HCC 2998 > 100 µM | SNB-75 > 100 µM | M19-MEL > 100 µM | SF-539 > 100 µM | HOP-62 > 100 µM | UACC-257 > 100 µM
